System: human breast cancer cells MDA-MB-468 xenograft
Assay: Human breast cancer MDA-MB-468 xenograft in nude mice, i.v. treatment, tumor volume
Type: in vivo, Balb/c nu/nu mice
Settings: i.v. doses on days 21, 28 and 34, 1×10^8 bacteria/dose or free Doxorubicin 7 mg/kg
Protocol: An anti-EGFR monoclonal antibody was selected because the xenografted cells were human breast cancer cells MDA-MB-468 that are known to overexpress the EGF receptor on the cell surface.
Human breast adenocarcinoma cells (MDA-MB-468, ATCC; human mammary epithelial cells; non-phagocytic) were grown in tissue culture to full confluency in T-75 flasks in RPMI 1640 medium supplemented with 5% Bovine Calf Serum (GIBCO-BRL Life Technologies, Invitrogen Corporation, Carlsbad, Calif., USA) and glutamine (Invitrogen) in a humidified atmosphere of 95% air and 5% CO2 at 37° C. 1×10^6 cells in 50 uL serum-free media together with 50 uL growth factor reduced matrigel (BD Biosciences, Franklin Lakes, N.J., USA) were injected subcutaneously between the shoulder blades of each mouse using a 23-gauge needle. The tumors were measured twice a week using an electronic digital caliper (Mitutoyo, Japan, precision to 0.001) and mean tumor volume was calculated using the formula, length (mm)×width^2 (mm)×0.5=volume (mm^3). 16 days post-implantation, the tumors reached volumes between 40 mm^3 and 70 mm^3, and mice were randomized to four different groups of five per group.
The experiment was designed as follows. Group 1 (control) received an i.v. dose of 100 μl of sterile physiological saline. Group 2 (control) received an i.v. dose of free Doxorubicin (7 mg/kg of mouse body weight). […]

**Q.** Which “anti-tumor effect (tumor volume, FIG. 1)” value does the source give for `COc1cccc2c1C(=O)c1c(O)c3c(c(O)c1C2=O)C[C@@](O)(C(=O)CO)C[C@@H]3O[C@H]1C[C@H](N)[C@H](O)[C@H](C)O1` [free doxorubicin, Doxorubicin] here?
**A.** no anti-tumor effects

Reference: patent US11147883B2, “Targeted delivery of drugs, therapeutic nucleic acids and functional nucleic acids to mammalian cells via intact killed bacterial cells” (EnGeneIC Molecular Delivery Pty Ltd, priority 2006, dated 2021)
